The term viability denotes a read-out of living cells in per cent, often relative to untreated cells.

Viability data for 34 compounds are collected here from article PMC11995724, “Antibiotic target discovery by integrated phenotypic and activity-based profiling of electrophilic fragments” (Cell chemical biology, 2025).

A short description of the data set: in vitro. The conditions noted are these: human, hek293t cells.
In the case of `CC(C)NC(=O)C(C#N)=Cc1cnn(-c2ccc(Cl)cc2)c1` [8-I08, 3-[1-(4-chlorophenyl)-1H-pyrazol-4-yl]-2-cyano-N-(propan-2-yl)prop-2-enamide], the viability at 48 h, 25 µM worked out at 77.6%.

For the compound `COc1ccc(C=C(C#N)C(=O)Nc2cccc(Cl)c2)cc1` [8-I09, N-(3-chlorophenyl)-2-cyano-3-(4-methoxyphenyl)prop-2-enamide], the viability at 48 h, 25 µM was determined as 80%.

Take `N#CC(=Cc1cc(F)ccc1F)C(=O)Nc1ccc2c(c1)OCCO2` [8-I10, 2-cyano-3-(2,5-difluorophenyl)-N-(2,3-dihydro-1,4-benzodioxin-6-yl)prop-2-enamide]: the viability at 48 h, 25 µM came out at 53.5%.

With `CSc1ccc(C=C(C#N)C(=O)N2CCCC2)cc1` [8-I11, 3-[4-(methylsulfanyl)phenyl]-2-(pyrrolidine-1-carbonyl)prop-2-enenitrile], the viability at 48 h, 25 µM stood at 106%.

In the case of `N#CC(=Cc1cc(F)ccc1F)C(=O)NC1CCCC1` [8-I12, 2-cyano-N-cyclopentyl-3-(2,5-difluorophenyl)prop-2-enamide], the viability at 48 h, 25 µM came to 16.8%.

For `Cc1cc(C)c(NC(=O)C(C#N)=Cc2ccc(C(C)(C)C)cc2)c(C)c1` [8-I13, 3-(4-tert-butylphenyl)-2-cyano-N-(2,4,6-trimethylphenyl)prop-2-enamide], the viability at 48 h, 25 µM worked out at 9.25%.

For the compound `N#CC(=Cc1cccc(O)c1)C(=O)Nc1ccc(N2CCOCC2)cc1` [8-I14, 2-cyano-3-(3-hydroxyphenyl)-N-[4-(morpholin-4-yl)phenyl]prop-2-enamide], the viability at 48 h, 25 µM was found to be 82.5%.

Regarding `N#CC(=Cc1ccsc1)C(=O)NCc1ccc(Cl)cc1` [8-I15, N-[(4-chlorophenyl)methyl]-2-cyano-3-(thiophen-3-yl)prop-2-enamide], the viability at 48 h, 25 µM came to 101%.

`Cc1cccc(NC(=O)C(C#N)=Cc2ccc(F)c(F)c2)c1` [8-I16, 2-cyano-3-(3,4-difluorophenyl)-N-(3-methylphenyl)prop-2-enamide]: the viability at 48 h, 25 µM was determined as 75.5%.

As for `N#CC(=Cc1ccc([N+](=O)[O-])o1)C(=O)NCc1ccco1` [8-I17, 2-cyano-N-[(furan-2-yl)methyl]-3-(5-nitrofuran-2-yl)prop-2-enamide], the viability at 48 h, 25 µM was 1.08%.

For `N#CC(=Cc1ccc(F)cc1)C(=O)Nc1ccccc1C(F)(F)F` [8-I18, 2-cyano-3-(4-fluorophenyl)-N-[2-(trifluoromethyl)phenyl]prop-2-enamide], the viability at 48 h, 25 µM is 81.7%.

On to `CC(C)NC(=O)C(C#N)=Cc1ccc(-c2ccc([N+](=O)[O-])cc2)o1` [8-I19, 2-cyano-3-[5-(4-nitrophenyl)furan-2-yl]-N-(propan-2-yl)prop-2-enamide], for which the viability at 48 h, 25 µM is 93%.

Consider `N#CC(=Cc1ccco1)C(=O)Nc1cccc(Cn2cccn2)c1` [8-I20, 2-cyano-3-(furan-2-yl)-N-{3-[(1H-pyrazol-1-yl)methyl]phenyl}prop-2-enamide], for which the viability at 48 h, 25 µM was 82.1%.

Take `Cc1ccc(C=C(C#N)C(=O)NC(C)C)o1` [8-I21, 2-cyano-3-(5-methylfuran-2-yl)-N-(propan-2-yl)prop-2-enamide]: the viability at 48 h, 25 µM was determined as 95.7%.

`CCOc1ccc(C=C(C#N)C(=O)Nc2ccncc2)cc1` [8-I22, 2-cyano-3-(4-ethoxyphenyl)-N-(pyridin-4-yl)prop-2-enamide]: the viability at 48 h, 25 µM amounted to 99.3%.

In the case of `Cc1ccccc1NC(=O)C(C#N)=Cc1ccc2c(c1)OCCO2` [8-J03, 2-cyano-3-(2,3-dihydro-1,4-benzodioxin-6-yl)-N-(2-methylphenyl)prop-2-enamide], the viability at 48 h, 25 µM was 93.5%.

For `C=CCNC(=O)C(C#N)=Cc1ccc(C(=O)O)cc1` [8-J04, 4-{2-cyano-2-[(prop-2-en-1-yl)carbamoyl]eth-1-en-1-yl}benzoic acid], the viability at 48 h, 25 µM was determined as 87.1%.

Turning to `N#CC(=Cc1ccc(C#N)cc1)C(=O)Nc1cccc(Cl)c1Cl` [8-J05, 2-cyano-3-(4-cyanophenyl)-N-(2,3-dichlorophenyl)prop-2-enamide], the viability at 48 h, 25 µM amounted to 112%.

For `N#CC(=Cc1cccc(Cl)c1Cl)C(=O)NCCc1ccccc1` [8-J06, 2-cyano-3-(2,3-dichlorophenyl)-N-(2-phenylethyl)prop-2-enamide], the viability at 48 h, 25 µM came out at 10.1%.

`Cc1cccc(C=C(C#N)C(=O)NC(C)C)c1` [8-J07, 2-cyano-3-(3-methylphenyl)-N-(propan-2-yl)prop-2-enamide]: the viability at 48 h, 25 µM worked out at 94.3%.

As to `CC(C)NC(=O)C(C#N)=Cc1ccc(Cl)c([N+](=O)[O-])c1` [8-J08, 3-(4-chloro-3-nitrophenyl)-2-cyano-N-(propan-2-yl)prop-2-enamide], the viability at 48 h, 25 µM amounted to 0.544%.

Turning to `N#CC(=Cc1cccc2ccccc12)C(=O)NCc1ccc(Cl)cc1` [8-J09, N-[(4-chlorophenyl)methyl]-2-cyano-3-(naphthalen-1-yl)prop-2-enamide], the viability at 48 h, 25 µM was found to be 66%.

As to `Cn1cc(C=C(C#N)C(=O)NCc2ccccc2)cn1` [8-J10, N-benzyl-2-cyano-3-(1-methyl-1H-pyrazol-4-yl)prop-2-enamide], the viability at 48 h, 25 µM was 111%.

With `CC(NC(=O)C(C#N)=Cc1ccc(-c2ccccc2)cc1)c1ccccc1` (stereo not shown) [8-J11, 3-{[1,1'-biphenyl]-4-yl}-2-cyano-N-(1-phenylethyl)prop-2-enamide], the viability at 48 h, 25 µM was 26.5%.

Consider `COc1ccc(C=C(C#N)C(=O)NCc2ccco2)cc1` [8-J12, 2-cyano-N-[(furan-2-yl)methyl]-3-(4-methoxyphenyl)prop-2-enamide], for which the viability at 48 h, 25 µM was 112%.

As for `N#CC(=Cc1cccc(Cl)c1)C(=O)Nc1ccccc1C(F)(F)F` [8-J13, 3-(3-chlorophenyl)-2-cyano-N-[2-(trifluoromethyl)phenyl]prop-2-enamide], the viability at 48 h, 25 µM is 101%.

Consider `N#CC(=Cc1ccccc1)C(=O)Nc1nnn[nH]1` [8-J14, 2-cyano-3-phenyl-N-(1H-1,2,3,4-tetrazol-5-yl)prop-2-enamide], for which the viability at 48 h, 25 µM was 111%.

Consider `CCC1SC(=C(C#N)C(N)=O)N(c2ccc(C)cc2)C1=O` (stereo not shown) [8-J15, 2-cyano-2-[5-ethyl-3-(4-methylphenyl)-4-oxo-1,3-thiazolidin-2-ylidene]acetamide], for which the viability at 48 h, 25 µM came to 117%.

Turning to `Cc1cc(C=C(C#N)C(=O)NCc2ccco2)cc(C)c1O` [8-J16, 2-cyano-N-[(furan-2-yl)methyl]-3-(4-hydroxy-3,5-dimethylphenyl)prop-2-enamide], the viability at 48 h, 25 µM came to 114%.

Turning to `Cc1ccc(NC(=O)C(C#N)=Cc2cccc([N+](=O)[O-])c2)cc1` [8-J17, 2-cyano-N-(4-methylphenyl)-3-(3-nitrophenyl)prop-2-enamide], the viability at 48 h, 25 µM stood at 88.1%.

Turning to `COc1ccc(C=C(C#N)C(=O)NC(C)c2ccccc2)cc1O` (stereo not shown) [8-J18, 2-cyano-3-(3-hydroxy-4-methoxyphenyl)-N-(1-phenylethyl)prop-2-enamide], the viability at 48 h, 25 µM turned out to be 93.3%.

In the case of `COc1ccc(C=C(C#N)C(=O)Nc2ccccc2OC)cc1O` [8-J19, 2-cyano-3-(3-hydroxy-4-methoxyphenyl)-N-(2-methoxyphenyl)prop-2-enamide], the viability at 48 h, 25 µM worked out at 107%.

Regarding `N#CC(=Cc1ccc(OC(F)F)cc1)C(=O)N1CCCCC1` [8-J20, 3-[4-(difluoromethoxy)phenyl]-2-(piperidine-1-carbonyl)prop-2-enenitrile], the viability at 48 h, 25 µM was 82.8%.

Regarding `N#CC(=Cc1cccc(Cl)c1Cl)C(N)=O` [8-J21, 2-cyano-3-(2,3-dichlorophenyl)prop-2-enamide], the viability at 48 h, 25 µM was determined as 121%.
